Assay results: patent US20260374766A1, “METHODS FOR TREATING CANCER” (Antares Therapeutics, Inc., priority 2022, published 2026)

Legend:
H1299 p53 R273H = assay: Cell Proliferation Assay (CellTiter-Glo, CTG), H1299 p53 R273H (NClH1299-inducible p53 R273H); format: cell-based; conditions: Homo sapiens, NCI-H1299, 120 h, CellTiter-Glo, H1299 p53 R273H, 5 days
Outline: (§1)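 Tet-One inducible p53 Y220C or R273H constructs were stably introduced into NCI-H1299 by lentiviral transduction; NUGC3 was used as is. Cells (250-500 per well) were exposed to compound for 5 days, then CellTiter-Glo was added for 10 min at room temperature and IC50 was calculated from luminescence.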

p53 Y220C = p53 Y220C (Homo sapiens, UniProt P04637, Y220C); assay: Luciferase Reporter Assay (Luc), p53 response element, NClH1299 cells with inducible p53 Y220C; format: cell-based; conditions: luciferase reporter, NClH1299 inducible p53 Y220C, 6 hour; for Emax: 10 uM tool compound as positive control; for AC50: read-out: Luc P53 Y220C AC50
Outline: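 Doxycycline (0.5 ug/mL, 24 h) induces the mutant before a 6-hour compound treatment. Reporter activity is then quantified by One-Glo luminescence.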

H1299 p53 Y220C = assay: Cell Proliferation Assay (CellTiter-Glo, CTG), H1299 p53 Y220C (NClH1299-inducible p53 Y220C); format: cell-based; conditions: Homo sapiens, NCI-H1299, 120 h, CellTiter-Glo, H1299 p53 Y220C, 5 days
Outline: as §1

[1] = target: T1, p53 Y220C mutant protein (amino acid residues 94-293) (Homo sapiens, UniProt P04637, Y220C); assay: Surface Plasmon Resonance (SPR) assay, Kd_kinetic; format: binding; conditions: SPR, kinetic KD, p53 Y220C; read-out: SPR P53 Y220C KD kinetic
T1 construct: p53 Y220C mutant protein (amino acid residues 94-293)
Outline: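 Kinetic dissociation constants derived by 1:1 model fit of SPR data acquired at 16 or 20 °C, pH 7.5 Tris/NaCl running buffer with 1% DMSO.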

[2] = target: T1, p53 Y220C mutant protein (amino acid residues 94-293); assay: Thermal Shift Assay (TSA), dTM; format: binding; conditions: thermal shift; for ΔTm at 100 µM: 100 uM compound, read-out: TSA P53 Y220C dTM (100 uM); for ΔTm at 10 µM: 10 uM compound, read-out: TSA P53 Y220C dTM (10 uM)
Outline: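 TM is derived by fitting Sypro Orange melt curves (30 °C to 50 °C, 0.03 °C/second) to a Boltzmann two-state model. Beforehand, 5 μM p53 Y220C (94-293) sits with 10 μM or 100 μM compound for 3 hours at 20 °C in HEPES pH7.4 buffer containing 100 mM NaCl and 1% DMSO.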

NUGC3 p53 Y220C = assay: Cell Proliferation Assay (CellTiter-Glo, CTG), NUGC3 p53 Y220C; format: cell-based; conditions: Homo sapiens, NUGC-3, 120 h, CellTiter-Glo, NUGC3 p53 Y220C, 5 days
Outline: as §1

| Compound | IC50 (H1299 p53 R273H) | Emax (p53 Y220C) | AC50 (p53 Y220C) | IC50 (H1299 p53 Y220C) | Kd [1] | ΔTm at 100 µM [2] | IC50 (NUGC3 p53 Y220C) | ΔTm at 10 µM [2] |
| --- | --- | --- | --- | --- | --- | --- | --- | --- |
| CNC(=O)c1ccc(NCC#Cc2nc3c(N[C@@H]4CCN(C)C[C@@H]4F)cccn3c2C2CC2)c(OC)c1 [Example 29, 4-{[3-(3-cyclopropyl-8-{[(3S,4R)-3-fluoro-1-methylpiperidin-4-yl]amino}imidazo[1,2-a]pyridin-2-yl)prop-2-yn-1-yl]amino}-3-methoxy-N-methylbenzamide] | ≥ 10 µM | < 70% | > 3 µM | > 3 µM | 0.1 to 1 µM | 5 to 10 °C | > 3 µM | – |
| COc1cc(S(C)(=O)=O)ccc1NCC#Cc1nc2c(NC3CCN(C)CC3)cc(N)cn2c1CC(F)(F)F [Example 32, 2-{3-[(4-methanesulfonyl-2-methoxyphenyl)amino]prop-1-yn-1-yl}-N8-(1-methylpiperidin-4-yl)-3-(2,2,2-trifluoroethyl) imidazo[1,2-a]pyridine-6,8-diamine] | ≥ 10 µM | < 70% | > 3 µM | > 3 µM | < 0.01 µM | 1 to 5 °C | > 3 µM | 1 to 5 °C |
| CNc1cc(NC2CCN(C)CC2)c2nc(C#CCNc3ccc(S(C)(=O)=O)cc3OC)c(CC(F)(F)F)n2c1 [Example 33, 2-{3-[(4-methanesulfonyl-2-methoxyphenyl)amino]prop-1-yn-1-yl}-N6-methyl-N8-(1-methylpiperidin-4-yl)-3-(2,2,2-trifluoroethyl) imidazo[1,2-a]pyridine-6,8-diamine] | ≥ 10 µM | < 70% | > 3 µM | > 3 µM | 0.01 to 0.1 µM | 1 to 5 °C | > 3 µM | – |
| CNC(=O)c1ccc(NCC#Cc2nc3c(N[C@@H]4CCN(C)C[C@@H]4F)cccn3c2CC(F)(F)F)cc1 [Example 35, 4-{[3-(8-{[(3S,4R)-3-fluoro-1-methylpiperidin-4-yl]amino}-3-(2,2,2-trifluoroethyl)imidazo[1,2-a]pyridin-2-yl)prop-2-yn-1-yl]amino}-N-methylbenzamide] | ≥ 10 µM | 70 to 80% | > 3 µM | 1.5 to 3 µM | < 0.01 µM | 5 to 10 °C | 1.5 to 3 µM | – |
| CNC(=O)c1ccc(NCC#Cc2nc3c(N[C@@H]4CCN(C)C[C@@H]4F)cccn3c2CC(F)(F)F)c(OC)c1 [Example 36, 4-{[3-(8-{[(3S,4R)-3-fluoro-1-methylpiperidin-4-yl]amino}-3-(2,2,2-trifluoroethyl)imidazo[1,2-a]pyridin-2-yl)prop-2-yn-1-yl]amino}3-methoxy-N-methylbenzamide] | ≥ 10 µM | 70 to 80% | 0.75 to 1.5 µM | 0.75 to 1.5 µM | < 0.01 µM | ≥ 10 °C | 0.75 to 1.5 µM | 5 to 10 °C |
| CNC(=O)c1ccc(NCC#Cc2nc3c(NC4CCN(C)CC4)cc(NC(=O)OC(C)(C)C)cn3c2CC(F)(F)F)c(OC)c1 [Example 39, tert-butyl N-[2-(3-{[2-methoxy-4-(methylcarbamoyl)phenyl]amino}prop-1-yn-1-yl)-8-[(1-methylpiperidin-4-yl)amino]-3-(2,2,2-trifluoroethyl)imidazo[1,2-a]pyridin-6-yl]carbamate] | 5 to 8 µM | < 70% | > 3 µM | > 3 µM | > 1 µM | 1 to 5 °C | 1.5 to 3 µM | – |
| CNC(=O)c1ccc(NCC#Cc2nc3c(NC4CCN(C)CC4)cc(N)cn3c2CC(F)(F)F)c(OC)c1 [Example 40, 4-[(3-{6-amino-8-[(1-methylpiperidin-4-yl)amino]-3-(2,2,2-trifluoroethyl)imidazo[1,2-a]pyridin-2-yl}prop-2-yn-1-yl)amino]-3-methoxy-N-methylbenzamide] | ≥ 10 µM | < 70% | > 3 µM | > 3 µM | 0.01 to 0.1 µM | 5 to 10 °C | > 3 µM | – |
